Where a name gives a salt, the structure may show the parent alone.
Tested on: patients suffering from social phobia (Social Anxiety Disorder)
Assay: double-blind, placebo-controlled study in patients suffering from social phobia (self-report questionnaires, state anxiety measures, verbal performance, PET)
Assay type: in vivo, human
Settings: NK1-antagonist group, daily oral dose of 5 mg, administered four weeks
From the text: The first study was a double-blind, placebo-controlled study of the effect of [2-methoxy-5-(5-trifluoromethyl-tetrazol-1-yl-benzyl)]-(2-phenyl-piperidin-3-yl)-amine dihydrochloride in patients suffering from social phobia (otherwise known as Social Anxiety Disorder). Thirty six patients aged between 19 and 48 meeting the DSM-IV criteria for social phobia (as set out in Diagnostic and Statistical Manual of Mental Disorders, 4th Edition, published by the American Psychiatric Association) were selected. […] The effect of [2-methoxy-5(5-trifluoromethyl-tetrazol-1-yl-benzyl)]-(2-phenyl-piperidin-3-yl)-amine dihydrochloride on anxiety symptoms and brain activity in patients diagnosed with social phobia was evaluated using self-report questionnaires (the Social Phobia Scale (SPS), the Social Interaction Anxiety Scale (SIAS), the Personal Report on Confidence as a Speaker (PRCS), the Social Phobia Screening Questionnaire (SPSQ), the Sheehan Disability Inventory (SDI), self-report versions of the Liebowitz Social Anxiety Scale (LSAS-SR) and the Global Assessment of Functioning (GAF) scale), state anxiety measures (the Speilberger state-anxiety inventory (STAI-S), subjective ratings of fear and distress on 0-100 (min-max) scales and heart rate), verbal performance (comparing the number of spoken syllables during the first ten seconds of each videotaped speech) and PET assessments.

COc1ccc(-n2nnnc2C(F)(F)F)cc1CN[C@H]1CCCN[C@H]1c1ccccc1 [[2-methoxy-5-(5-trifluoromethyl-tetrazol-1-yl-benzyl)]-(2-phenyl-piperidin-3-yl)-amine dihydrochloride]
effect compared with placebo: generally superior to placebo
improvement of patients with social phobia after short-term treatment: significantly improved

Source: patent US20070060617A1, “2-Methoxy-5(5-trifluoromethyl-tetrazol-1-yl-benzyl)-2s-phenyl-piperdin-3s-yl)-amine for the treatment of social phobia” (priority 2004, published 2007)
